Reference: ChEMBL document CHEMBL3886365, “Substituted oxadiazole compounds” (2015)

How the values were obtained:
[1] = target: Sphingosine 1-phosphate receptor 1 (Homo sapiens, UniProt P21453); assay: (§1) GTPgammaS Binding Assay: Compounds were loaded in a 384 Falcon v-bottom plate (0.5 ul/well in a 11 point, 3-fold dilution). Membranes prepared from S1P1/CHO cells or EDG3-Ga15-bla HEK293T cells were added to the compound plate (40 ul/well, final protein 3 ug/well) with MULTIDROP. [35S]GTP (1250 Ci/mmol, Perkin Elmer) was diluted in assay buffer: 20 mM HEPES, pH7.5, 10 mM MgCl2, 150 mM NaCl, 1 mM EGTA, 1 mM DTT, 10 uM GDP, 0.1% fatty acid free BSA, and 10 ug/ml Saponin to 0.4 nM. 40 ul of the [35S] GTP solution was added to the compound plate with a final concentration of 0.2 nM. The reaction was kept at room temperature for 45 min. At the end of incubation, all the mixtures in the compound plate were transferred to Millipore 384-well FB filter plates via the VELOCITY11 Vprep liquid handler. The filter plate was washed with water 4 times by using the manifold Embla plate washer and dried at 60° C. for 45 min. MicroScint 20 scintillation fluid (30 ul) was added to each well.; format: functional, cell membranes
Chain of Sphingosine 1-phosphate receptor 1 (P21453 whole entry): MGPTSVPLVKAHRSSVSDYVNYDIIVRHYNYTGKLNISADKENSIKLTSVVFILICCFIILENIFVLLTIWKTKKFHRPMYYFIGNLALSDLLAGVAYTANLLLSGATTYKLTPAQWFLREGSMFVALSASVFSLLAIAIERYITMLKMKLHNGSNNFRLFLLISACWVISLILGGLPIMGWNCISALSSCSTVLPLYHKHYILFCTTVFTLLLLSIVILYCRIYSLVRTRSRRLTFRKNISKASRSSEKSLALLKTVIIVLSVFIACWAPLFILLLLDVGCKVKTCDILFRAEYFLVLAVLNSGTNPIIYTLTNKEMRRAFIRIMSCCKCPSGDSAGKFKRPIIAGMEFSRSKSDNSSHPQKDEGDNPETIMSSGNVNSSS

[2] = target: Sphingosine 1-phosphate receptor 3 (Homo sapiens, UniProt Q99500); assay: as §1; format: functional, cell membranes
Chain of Sphingosine 1-phosphate receptor 3 (Q99500 whole entry): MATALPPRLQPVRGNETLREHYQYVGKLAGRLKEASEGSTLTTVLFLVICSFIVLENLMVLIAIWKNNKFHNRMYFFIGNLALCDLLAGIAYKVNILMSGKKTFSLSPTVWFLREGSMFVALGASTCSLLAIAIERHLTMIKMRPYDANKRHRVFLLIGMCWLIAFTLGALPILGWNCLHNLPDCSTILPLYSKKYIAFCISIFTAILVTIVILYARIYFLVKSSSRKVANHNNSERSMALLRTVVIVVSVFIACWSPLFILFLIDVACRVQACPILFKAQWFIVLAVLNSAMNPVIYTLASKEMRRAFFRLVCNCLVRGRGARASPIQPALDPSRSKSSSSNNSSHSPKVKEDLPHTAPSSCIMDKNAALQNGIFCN

EC50 [1]: 5.7 µM
EC50 [2]: > 62 µM
SMILES: FC(F)(F)Oc1ccc(-c2noc(CCC3(c4ccccc4)CCCCC3)n2)cc1
